Like-named read-outs stand apart in the source and are kept apart here.
Tests used:
[1] = 16-membered ring
[2] = target: His-tagged KRAS G12D protein (Homo sapiens, UniProt P01116, G12D); test: KRAS G12D TR-FRET Assay; assay type: binding
Procedure, shortened: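 GDP-loaded His-KRAS G12D (20 nM in HEPES pH 7.4, MgCl2, NaCl, BSA, Tween-20, 10 μM GDP) preincubated with compound 30 min at room temperature, then 20 nM biotinylated KRPep-2d peptide added for 1 h. TR-FRET detection used Eu anti-His and streptavidin-d2, read after 1 h.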

[3] = target: GDP-bound KRAS protein (aa 1-169), containing both G12D and C118A amino acid substitutions (Homo sapiens, UniProt P01116, C118A/G12D); test: KRAS G12D Coupled Nucleotide Exchange Assay; assay type: biochemical
Experimental: KRAS G12D Coupled Nucleotide Exchange Assay
The assay plates were then read on a PerkinElmer En Vision Multilabel Reader, using AlphaScreen® technology, and data were analyzed using a 4-parameter logistic model to calculate IC50 values.

[4] = system: Phosphorylation of ERK1/2 in AsPC-1 cells; test: Phospho-ERK1/2 MSD Assay; assay type: cell-based, human; details: read-out: 2 h p-ERK (AsPC-1 cells), IC50
Experimental: Sixteen hours prior to compound treatment, AsPC-1 cells were seeded in 96-well cell culture plates at a density of 25,000 cells/well and incubated at 37° C., 5% CO2. A compound dose-response titration was diluted in growth media, added to appropriate wells of a cell culture plate, and then incubated at 37° C., 5% CO2 for 2 hours. […] Phosphorylation of ERK1/2 in compound-treated lysates was assayed using Phospho-ERK 1/2 Whole Cell Lysate kits (Meso Scale Discovery K151DWD) according to the manufacturer's protocol. Assay plates were read on a Meso Scale Discovery Sector Imager 6000, and data were analyzed using a 4-parameter logistic model to calculate IC50 values.

AsPC-1 cells = test: AsPC-1 CTG Assay (CellTiter-Glo cell viability, 72 h); assay type: cell-based, human; details: read-out: G12D/C/V Cell Proliferation CTG (72 h) AsPC-1
Experimental: AsPC-1 and SW620 CTG Assay Protocols
(§1) Serially-diluted compound or DMSO was added to the cells, and plates were incubated at 37° C., 5% CO2 for 72 h. Cell viability was measured using a CellTiter-Glo® Luminescent Cell Viability Assay kit (Promega) according to the manufacturer's protocol. The luminescence signal of treated samples was normalized to DMSO control, and data were analyzed using a 4-parameter logistic model to calculate IC50 values.

MIA PaCa-2 cells = test: MIA PaCa-2 CTG Assay (CellTiter-Glo cell viability, 72 h); assay type: cell-based, human; details: Homo sapiens, second value of cell, read-out: G12D/C/V Cell Proliferation CTG (72 h) Mia PaCa-2
Experimental: MIA PaCa-2 CTG Assay Protocol
as §1

[5] = 2 hours compound pre-incubation, SOS-mediated nucleotide exchange
[6] = Homo sapiens, ASPC1, 2 h, AsPC-1 cells, 2 h compound treatment
[7] = Homo sapiens, ASPC1, 72 h, AsPC-1 cells, 72 h, first value of cell

His-tagged KRAS G12D protein, sequence (P01116 1-188 isoform P01116-2 G12D): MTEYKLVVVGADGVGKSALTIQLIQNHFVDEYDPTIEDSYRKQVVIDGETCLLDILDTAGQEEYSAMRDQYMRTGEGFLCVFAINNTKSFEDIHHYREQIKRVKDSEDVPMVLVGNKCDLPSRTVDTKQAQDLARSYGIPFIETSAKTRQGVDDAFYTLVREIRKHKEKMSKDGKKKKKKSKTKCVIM
GDP-bound KRAS protein (aa 1-169), containing both G12D and C118A amino acid substitutions, sequence (P01116 1-169 isoform P01116-2 G12D/C118A): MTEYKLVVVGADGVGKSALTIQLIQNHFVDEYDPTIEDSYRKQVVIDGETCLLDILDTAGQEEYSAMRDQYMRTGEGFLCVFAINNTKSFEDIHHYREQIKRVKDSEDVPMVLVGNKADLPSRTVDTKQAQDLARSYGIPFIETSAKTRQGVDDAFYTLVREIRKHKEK

Question: For O=C1CCCc2c(F)ccc3cccc(c23)-c2ncc3c(nc(OC[C@@]45CCCN4C[C@H](F)C5)nc3c2F)N2CCC[C@H](C2)N1, which ring closure, yield after HPLC ([1]; from N[C@@H]1CCCN(c2nc(OC[C@@]34CCCN3C[C@H](F)C4)nc3c(F)c(-c4cccc5ccc(F)c(CCCC(=O)O)c45)ncc23)C1, amide bond, HATU/DIEA, DMF, 5.9 mM, 0.5 h, 2 steps) is on record?
Answer: 30%

Question: For CC1COC(=O)C[C@@H]2CCCN(C2)c2nc(OC[C@@]34CCCN3C[C@H](F)C4)nc3c(F)c(ncc23)-c2c(c(Cl)cc3[nH]ncc23)C1 (some centres unmarked) [Example 91], which IC50 ([2]; TR-FRET binding) is on record?
Answer: 4 nM

Question: And the IC50 [3, 5]?
Answer: 2 nM

Question: What about the IC50 [4, 6] of the same compound?
Answer: 27 nM

Question: What about the IC50 (AsPC-1 cells; [7]) of the same compound?
Answer: 280 nM

Question: Which results are given for C[C@@]12CCCN(C1)c1nc(OC[C@@]34CCCN3C[C@H](F)C4)nc3c(F)c(ncc13)-c1cc(O)cc3ccc(F)c(c13)CCCC(=O)O2 [Example 43, (15R)-22,31-Difluoro-8-(((2R,7aS)-2-fluorotetrahydro-1H-pyrrolo[1,2-a]pyrrol-7a(5H)-yl)methoxy)-27-hydroxy-15-methyl-16-oxa-3,7,9,11-tetraazahexacyclo[19.7.1.1˜2,6˜.1˜11,15˜.0˜5,10˜.0˜25,29˜]hentriaconta-1(28),2(31),3,5,7,9,21,23,25(29),26-decaen-17-one bis(2,2,2-trifluoroacetate)]?
Answer: IC50 ([2]; TR-FRET binding): 4 nM; IC50 [3, 5]: 2 nM; IC50 [4, 6]: 13 nM; IC50 (AsPC-1 cells; [7]): 92 nM

Question: With C[C@@]12CCCCN(C1)c1nc(OC[C@@]34CCCN3C[C@H](F)C4)nc3c(F)c(ncc13)-c1c(c(Cl)cc3[nH]ncc13)CCCC(F)C(=O)N2 (mixture of isomers) [Example 281, (23RS,26R)-18-chloro-23,32-difluoro-4-(((2R,7aS)-2-fluorotetrahydro-1H-pyrrolo[1,2-a]pyrrol-7a(5H)-yl)methoxy)-26-methyl-1,3,5,9,14,15,25-heptaazahexacyclo[24.4.1.1~6,10~.0~2,7~.0~11,19~.0~12,16~]dotriaconta-2,4,6,8,10(32),11,13,16,18-nonaen-24-one] as the compound, how does the IC50 (MIA PaCa-2 cells) read?
Answer: 90 nM

Question: What does the source list for C[C@@]12COCCN(C1)c1nc(OC[C@@]34CCCN3C[C@H](F)C4)nc3c(F)c(ncc13)-c1c(c(F)cc3[nH]ncc13)CCCOC(=O)O2 [Example 184, (26S)-18,32-difluoro-4-(((2R,7aS)-2-fluorotetrahydro-1H-pyrrolo[1,2-a]pyrrol-7a(5H)-yl)methoxy)-26-methyl-23,25,28-trioxa-1,3,5,9,14,15-hexaazahexacyclo[24.4.1.1~6,10~.0~2,7~.0~11,19~.0~12,16~]dotriaconta-2,4,6,8,10(32),11,13,16,18-nonaen-24-one]?
Answer: IC50 ([2]; TR-FRET binding): 4 nM; IC50 [3, 5]: 2 nM; IC50 [4, 6]: 11.8 nM; IC50 (AsPC-1 cells; [7]): 120 nM

Question: Which ring closure, yield after HPLC ([1]; from CN[C@@H]1CCCN(c2nc(OC[C@@]34CCCN3C[C@H](F)C4)nc3cc(-c4c(CCCCC(=O)O)c(Cl)cc5[nH]ncc45)nnc23)C1, amide bond, EDCI/HOBt/DIEA, DCM, 10.3 mM, 25.0 °C, 36.0 h, 3 steps) does the source give for CN1C(=O)CCCCc2c(Cl)cc3[nH]ncc3c2-c2cc3nc(OC[C@@]45CCCN4C[C@H](F)C5)nc(c3nn2)N2CCC[C@@H]1C2 here?
Answer: 20%

Question: For O=C1COCCc2c(Cl)cc3[nH]ncc3c2-c2ncc3c(nc(OC[C@@]45CCCN4C[C@H](F)C5)nc3c2F)N2CC[C@H]3CCN1[C@H]3C2 [Example 270], which IC50 ([2]; TR-FRET binding) is on record?
Answer: 7 nM

Question: And the IC50 [4, 6]?
Answer: 123 nM

Question: And the IC50 (AsPC-1 cells; [7])?
Answer: 606 nM

Question: And the IC50 (MIA PaCa-2 cells)?
Answer: 675 nM

Question: Which ring closure, yield after HPLC ([1]; the molecule shown is the open-chain precursor, snar bond) does the source give for Cc1cc2[nH]ncc2c(-c2ncc3c(O)nc(OC[C@@]45CCCN4C[C@H](F)C5)nc3c2F)c1CCOC(=O)OC[C@@H]1CCCNC1 here?
Answer: 20%

Question: Which ring closure, yield after HPLC ([1]; from CN(C(=O)OCCCc1c(Cl)cc2[nH]ncc2c1-c1ncc2c(O)nc(OC[C@@]34CCCN3C[C@H](F)C4)nc2c1F)[C@@H]1CCCNC1, snar bond, PyBroP/DIEA, MeCN/DMSO, 11.7 mM, 25.0 °C, 2 steps) does the source give for CN1C(=O)OCCCc2c(Cl)cc3[nH]ncc3c2-c2ncc3c(nc(OC[C@@]45CCCN4C[C@H](F)C5)nc3c2F)N2CCC[C@@H]1C2 here?
Answer: 14%

Question: With CSc1nc2c3cnc(c(C)c3n1)-c1cc(O)cc3ccc(F)c(c13)CCCC(=O)N[C@]1(C)CCCN2C1 as the compound, how does the ring closure, yield after HPLC ([1]; from CSc1nc(N2CCC[C@@](C)(N)C2)c2cnc(-c3cc(O)cc4ccc(F)c(CCCC(=O)O)c34)c(C)c2n1, amide bond, HATU, then Me2NH, DCM/DMA/DMF, 5.6 mM, 25.0 °C) read?
Answer: 32%

Question: Which IC50 ([2]; read-out: KRAS G12D Binding IC50) does the source give for Cc1cc2[nH]ncc2c2c1CCCCOCC1CN(CCC1(F)F)c1nc(OC[C@@]34CCCN3C[C@H](F)C4)nc3c(F)c-2ncc13 (stereo partly drawn) [Example 227, (17R)-18,18,30-trifluoro-24-(((2R,7aS)-2-fluorotetrahydro-1H-pyrrolo[1,2-α]pyrrol-7a(SH)-yl)methoxy)-9-methyl-15-oxa-5,6,21.23,25,29-hexaazahexacyclo[24.3.1.1~17,21~.0~2,10~.0~3.7~.0~22,27~]hentriaconta-1(30),2,4,7,9,22,24,26,28-nonaene] here?
Answer: 35 nM

Question: And the IC50 [3]?
Answer: 12 nM

Question: And the IC50 [4]?
Answer: 611 nM

Question: And the IC50 (AsPC-1 cells)?
Answer: 3910 nM

From patent US20260174769A1, “MACROCYCLIC COMPOUNDS AND METHODS OF USE” (AMGEN INC., priority 2022, published 2026)
